Results from publication PMC9317718 (Molecules, 2022).

Columns and labels:
in vitro [1] = conditions: for CLint: microsomes
Text: Km is defined as the characteristic constant of the enzyme, which represent the […] (Vmax). The values of Vmax and Km are based on the nonlinear regression analysis of the Michaelis-Menten equation, V = Vmax × S/(Km + S). The kinetic parameters were adopted through the following parameters: S, Vmax, and V. All of these parameters represented the substrate concentration, the maximum velocity of metabolism, and the velocity of metabolism, respectively. CLint (the different ability of the organism in eliminating the particular chemical substances) is defined as Vmax/Km, which reflected the different ability of the organism in eliminating the particular chemical substances.

CYP1A2 [2] = target: T1, CYP1A2 (Homo sapiens, UniProt P05177); experiment: Degradation in single recombinant CYP1A2; format: in vitro ADME; conditions: 5 μM compound, single enzyme CYP1A2; for speed constant k in CYP1A2: t in min; for half-life at 5 μM: human, recombinant CYP1A2, pH 7.4, read-out: t1/2 in CYP1A2
T1 construct: purchased RILD (Research Institute for Liver Diseases Co., Ltd., Shanghai, China)
T1 sequence (P05177 whole entry): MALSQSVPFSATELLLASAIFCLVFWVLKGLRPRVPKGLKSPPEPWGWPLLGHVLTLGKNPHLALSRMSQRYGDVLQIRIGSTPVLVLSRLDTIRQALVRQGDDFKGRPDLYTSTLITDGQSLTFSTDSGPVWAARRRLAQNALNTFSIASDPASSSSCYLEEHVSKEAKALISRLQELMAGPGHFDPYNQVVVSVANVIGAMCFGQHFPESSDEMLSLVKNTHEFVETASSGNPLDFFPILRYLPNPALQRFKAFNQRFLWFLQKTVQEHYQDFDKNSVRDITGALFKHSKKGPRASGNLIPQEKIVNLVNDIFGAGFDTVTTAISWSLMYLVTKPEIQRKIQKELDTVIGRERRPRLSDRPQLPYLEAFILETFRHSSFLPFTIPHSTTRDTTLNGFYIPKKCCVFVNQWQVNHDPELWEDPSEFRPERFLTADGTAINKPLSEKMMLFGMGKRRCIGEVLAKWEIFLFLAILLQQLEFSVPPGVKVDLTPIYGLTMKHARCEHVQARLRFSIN

CYP1A2 [3] = target: T2, CYP1A2 (Homo sapiens, UniProt P05177); experiment: Inhibition of CYP1A2 activity in vitro (probe phenacetin); format: in vitro ADME; conditions: compound 0-80 μM; probe phenacetin 0.02 mM
T2 sequence (P05177 2-516): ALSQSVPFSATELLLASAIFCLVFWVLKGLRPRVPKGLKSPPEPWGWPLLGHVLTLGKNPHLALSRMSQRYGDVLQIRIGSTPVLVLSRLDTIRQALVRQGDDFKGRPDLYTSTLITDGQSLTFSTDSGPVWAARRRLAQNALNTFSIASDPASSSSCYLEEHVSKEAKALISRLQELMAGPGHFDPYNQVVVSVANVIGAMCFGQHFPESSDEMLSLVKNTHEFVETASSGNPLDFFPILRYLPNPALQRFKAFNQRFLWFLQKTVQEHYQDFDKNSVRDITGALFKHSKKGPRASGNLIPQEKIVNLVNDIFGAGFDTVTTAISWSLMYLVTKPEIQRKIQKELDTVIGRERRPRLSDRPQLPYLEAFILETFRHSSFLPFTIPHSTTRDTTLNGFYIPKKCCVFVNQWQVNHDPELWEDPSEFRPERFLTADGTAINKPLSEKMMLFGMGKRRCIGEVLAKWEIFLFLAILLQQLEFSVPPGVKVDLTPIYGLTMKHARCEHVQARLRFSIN
Experimental: (§1) The mixed probe substrate consisted of testosterone 0.01 mM for CYP3A4, phenacetin 0.02 mM for CYP1A2, chlorzoxazone 0.02 mM for CYP2E1, and omeprazole 0.01 mM for CYP2C19, respectively. […] Other procedure was accorded to above step of 2.6 “Microsomal incubation conditions”.

CYP2C19 [4] = target: T3, CYP2C19 (Homo sapiens, UniProt P33261); experiment: biochemical
Experimental: as §1

CYP2E1 [5] = target: T4, CYP2E1 (Homo sapiens, UniProt P05181); experiment: biochemical
Experimental: as §1

CYP2C19 [6] = conditions: rat liver after 7-days i.g. treatment, low-, medium- and high-dose groups
Experimental: To investigate the molecular mechanisms in the activity of the CYP enzymes, the level of CYP protein in the liver of rats was examined.
In this study, the grouping and administration methods were as described in the step of “Pharmacokinetic study of the probe substrate in vivo”. On the 8th day, the blood was allowed to drain through the aorta and the liver was excised quickly, […]. The liver tissue was stored at −80 °C until analysis.
Then, a piece of the liver tissue was separately homogenized and lysed in RIPA buffer with 1% proteinase inhibitor phenylmethylsulfonyl fluoride (PMSF). […] The protein levels were quantified by a BCA Assay Kit. The samples were boiled at 100 °C for 10 min. Equal amounts of protein lysates were separated on 10% SDS-polyacrylamide gels by electrophoresis and then transferred onto nitrocellulose membranes. The membranes were blocked in 5% non-fat milk. […] In addition, images were captured using an Odyssey Infra-red Imaging System v3.0.16 (LI-COR Biosciences, Lincoln, NE, USA), and quantified by densitometry scanning using ImageJ Analysis software (National Institutes of Health, Bethesda, MD, USA).

CYP2E1 [7] = target: T4, CYP2E1; conditions: recombinant enzyme, 5 μM, pH 7.4
CYP2C19 [8] = target: T3, CYP2C19; conditions: recombinant enzyme, 5 μM, pH 7.4
CYP3A4 [9] = conditions: rat, in vivo
CYP1A2 [10] = target: T5, CYP1A2 (Rattus norvegicus, UniProt P04799); conditions: in vivo
T5 sequence (P04799 1-513): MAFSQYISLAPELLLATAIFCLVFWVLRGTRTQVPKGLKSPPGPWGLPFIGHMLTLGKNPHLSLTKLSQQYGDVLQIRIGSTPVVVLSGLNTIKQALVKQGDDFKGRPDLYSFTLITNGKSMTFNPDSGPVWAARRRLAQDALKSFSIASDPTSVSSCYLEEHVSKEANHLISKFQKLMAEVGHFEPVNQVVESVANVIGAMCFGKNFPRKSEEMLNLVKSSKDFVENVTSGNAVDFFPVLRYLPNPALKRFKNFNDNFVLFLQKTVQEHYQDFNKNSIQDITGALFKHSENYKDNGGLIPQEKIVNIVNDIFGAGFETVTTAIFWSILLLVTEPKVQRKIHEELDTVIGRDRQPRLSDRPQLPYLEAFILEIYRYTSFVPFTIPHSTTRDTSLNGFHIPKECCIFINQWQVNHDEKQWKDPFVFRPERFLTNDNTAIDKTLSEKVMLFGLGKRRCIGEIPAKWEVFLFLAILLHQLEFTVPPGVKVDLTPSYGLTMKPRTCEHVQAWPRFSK

in vitro [11] = conditions: male, Sprague-Dawley, rat, microsomes, pH 7.4
in vitro [12] = conditions: human, microsomes, pH 7.4
CYP2E1 [13] = target: T4, CYP2E1; experiment: in vitro; conditions: recombinant enzyme, pH 7.4
CYP2C19 [14] = target: T3, CYP2C19; experiment: in vitro; conditions: recombinant enzyme, pH 7.4
CYP3A4 [15] = target: T6, CYP3A4 (Homo sapiens, UniProt P08684); experiment: in vitro; conditions: pH 7.4, probe testosterone 0.01 mM
Target sequence in this assay (P08684 2-503): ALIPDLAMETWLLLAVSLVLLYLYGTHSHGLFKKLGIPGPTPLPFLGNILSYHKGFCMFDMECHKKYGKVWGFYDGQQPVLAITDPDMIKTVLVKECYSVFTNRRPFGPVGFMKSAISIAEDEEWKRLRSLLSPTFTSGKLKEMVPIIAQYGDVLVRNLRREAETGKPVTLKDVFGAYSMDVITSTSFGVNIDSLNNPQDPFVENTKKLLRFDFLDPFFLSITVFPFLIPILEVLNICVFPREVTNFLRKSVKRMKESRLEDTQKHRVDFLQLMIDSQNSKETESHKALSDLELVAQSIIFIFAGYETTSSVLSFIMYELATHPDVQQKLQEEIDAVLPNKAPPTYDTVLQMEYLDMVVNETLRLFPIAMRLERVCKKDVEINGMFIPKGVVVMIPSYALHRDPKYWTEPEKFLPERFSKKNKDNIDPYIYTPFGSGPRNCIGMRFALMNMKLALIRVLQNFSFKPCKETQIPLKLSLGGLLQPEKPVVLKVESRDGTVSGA

CYP3A4 [16] = target: T6, CYP3A4; experiment: Degradation in single recombinant CYP3A4; format: in vitro ADME; parameters: purchased RILD (Research Institute for Liver Diseases Co., Ltd., Shanghai, China); conditions: 5 μM compound, single enzyme CYP3A4; for speed constant k in CYP3A4: t in min; for half-life at 5 μM: human, recombinant CYP3A4, pH 7.4, read-out: t1/2 in CYP3A4
Target sequence in this assay (P08684 whole entry): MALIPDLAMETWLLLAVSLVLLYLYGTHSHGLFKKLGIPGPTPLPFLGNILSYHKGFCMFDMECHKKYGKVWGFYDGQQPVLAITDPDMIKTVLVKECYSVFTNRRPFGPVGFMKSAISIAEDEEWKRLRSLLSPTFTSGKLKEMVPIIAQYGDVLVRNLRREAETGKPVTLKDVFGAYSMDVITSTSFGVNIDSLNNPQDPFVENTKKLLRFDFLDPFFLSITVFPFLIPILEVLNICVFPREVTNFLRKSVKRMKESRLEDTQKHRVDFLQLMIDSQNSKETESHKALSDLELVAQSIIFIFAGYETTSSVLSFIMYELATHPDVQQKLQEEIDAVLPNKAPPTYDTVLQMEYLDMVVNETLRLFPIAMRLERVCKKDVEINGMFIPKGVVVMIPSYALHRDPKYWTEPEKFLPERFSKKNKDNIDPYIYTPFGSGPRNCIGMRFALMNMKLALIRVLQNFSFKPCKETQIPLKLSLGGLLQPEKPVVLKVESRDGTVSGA

T3 sequence (P33261 whole entry): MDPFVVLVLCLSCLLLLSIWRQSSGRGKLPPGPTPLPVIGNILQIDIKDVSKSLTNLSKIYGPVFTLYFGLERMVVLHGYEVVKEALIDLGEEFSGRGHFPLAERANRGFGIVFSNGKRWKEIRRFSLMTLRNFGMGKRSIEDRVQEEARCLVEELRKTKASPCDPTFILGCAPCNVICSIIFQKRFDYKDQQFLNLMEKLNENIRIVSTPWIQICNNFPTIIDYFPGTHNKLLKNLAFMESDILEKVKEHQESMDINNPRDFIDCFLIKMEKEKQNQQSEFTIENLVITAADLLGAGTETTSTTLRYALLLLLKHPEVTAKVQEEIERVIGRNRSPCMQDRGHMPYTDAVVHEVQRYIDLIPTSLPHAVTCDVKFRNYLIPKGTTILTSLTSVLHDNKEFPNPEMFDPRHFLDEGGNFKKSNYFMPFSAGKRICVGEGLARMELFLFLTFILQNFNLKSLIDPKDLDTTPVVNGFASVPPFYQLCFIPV
T4 sequence (P05181 whole entry): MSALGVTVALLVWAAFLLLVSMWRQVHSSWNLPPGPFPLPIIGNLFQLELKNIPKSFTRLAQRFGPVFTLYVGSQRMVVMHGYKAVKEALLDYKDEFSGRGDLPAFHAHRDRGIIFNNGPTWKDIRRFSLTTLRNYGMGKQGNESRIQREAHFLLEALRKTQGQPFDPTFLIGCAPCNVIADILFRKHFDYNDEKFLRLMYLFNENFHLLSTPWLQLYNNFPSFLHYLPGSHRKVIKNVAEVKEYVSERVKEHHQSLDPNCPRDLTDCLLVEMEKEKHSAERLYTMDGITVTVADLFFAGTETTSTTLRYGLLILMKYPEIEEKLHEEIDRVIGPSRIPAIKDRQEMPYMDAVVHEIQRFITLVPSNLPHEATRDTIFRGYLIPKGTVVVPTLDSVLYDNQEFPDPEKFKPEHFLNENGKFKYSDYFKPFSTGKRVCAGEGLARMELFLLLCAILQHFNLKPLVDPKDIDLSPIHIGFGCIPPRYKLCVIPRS

SMILES | Km at 15 min (in vitro [1]; Sprague-Dawley, rat, pH 7.4) [µM] | Km at 15 min (in vitro [1]; human) [µM] | CLint (in vitro [1]; human) | CLint (in vitro [1]; rat) | speed constant k in CYP1A2 (CYP1A2 [2]) | half-life at 5 μM (CYP1A2 [2]) [h] | IC50 (CYP1A2 [3]) [µM] | IC50 (CYP2C19 [4]) [µM] | IC50 (CYP2E1 [5]) [µM] | speed constant k in CYP2E1 (CYP2E1 [7]) | speed constant k in CYP2C19 (CYP2C19 [8]) | metabolic rate of midazolam with increasing dose of compound (CYP3A4 [9]) | metabolic rate of phenacetin with increasing dose of compound (CYP1A2 [10]) | half-life (in vitro [11]) [h] | half-life (in vitro [12]) [h] | half-life at 5 μM (CYP2E1 [13]) [h] | half-life at 5 μM (CYP2C19 [14]) [h] | IC50 at 120 min (CYP3A4 [15]) [µM] | speed constant k in CYP3A4 (CYP3A4 [16]) | half-life at 5 μM (CYP3A4 [16]) [h] | also measured
COc1cc(/C=C/C(=O)CC(=O)/C=C/c2ccc(O)c(OC)c2)ccc1O [curcumin] | 48.5 ± 8.27 | 16.6 ± 4.3 | 0.2435 mL/min/(mg of Protein) | 0.3226 mL/min/(mg of Protein) | 0.0023 ± 0.0006 | 5.02 | > 80 | 11.9 | > 80 | 0.01 ± 0.0024 | 0.011 ± 0.0017 | decreased | decreased | 0.372 | 2.89 | 1.16 | 1.05 | 24.3 | 0.018 ± 0.0035 | 0.642 | protein level of CYP2C19 vs control in vivo (CYP2C19 [6]): decreased
CC(C)=C1C/C=C(\C)CC/C=C(\C)CC1=O [germacrone] | 49.6 ± 11.1 | 44.8 ± 5.47 | 0.3298 mL/min/(mg of Protein) | 0.2763 mL/min/(mg of Protein) | 0.008 ± 0.001 | 1.44 | 78.1 | 17.8 | > 80 | 0.01 ± 0.0017 | 0.012 ± 0.0032 | increased | increased | 0.3 | 0.273 | 1.16 | 0.963 | 3.57 | 0.019 ± 0.0064 | 0.608 | 
